Laboratory results: patent publication US9695155B2, “Herbicidal substituted pyrimidinyloxy benzene compounds” (E. I. DU PONT DE NEMOURS AND COMPANY, priority 2013, dated 2017)

Tests used:
green foxtail [1] = experiment: Test D preemergence; format: in vivo, Setaria viridis; details: Setaria viridis, pre-emergence
Outline: (§1)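 Plant response is a visual score from 0 (no effect) to 100 (complete control) relative to controls. Plants were kept in a controlled growth environment for 7 to 21 days after spraying. Preemergence treatments went onto silt loam soil; postemergence ones onto 1- to 4-leaf seedlings.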

oilseed rape = experiment: Test D preemergence; format: in vivo, Brassica napus; details: Brassica napus, pre-emergence
From the text: (§2) Seeds of plant species selected from bluegrass (annual bluegrass, Poa annua), blackgrass (Alopecurus myosuroides), canarygrass (littleseed canarygrass, Phalaris minor), chickweed (common chickweed, Stellaria media), galium (catchweed bedstraw, Galium aparine), bromegrass, downy (downy bromegrass, Bromus tectorum), field poppy (Papaver rhoeas), field violet (Viola arvensis), green foxtail (Setaria viridis), deadnettle (henbit deadnettle, Lamium amplexicaule), Italian ryegrass (Lolium multiflorum), kochia (Kochia scoparia), lambsquarters (Chenopodium album), oilseed rape (Brassica napus), pigweed (Amaranthus retroflexus), chamomile (scentless chamomile, Matricaria inodora), Russian thistle (Salsola kali), speedwell (bird's-eye speedwell, Veronica persica), spring barley (Hordeum vulgare), spring wheat (Triticum aestivum), wild buckwheat (Polygonum convolvulus), wild mustard (Sinapis arvensis), wild oat (Avena fatua), wild radish (Raphanus raphanistrum), windgrass (Apera spica-venti), winter barley (Hordeum vulgare), and winter wheat (Triticum aestivum) were planted into a silt loam soil and treated preemergence with test chemicals formulated in a non-phytotoxic solvent mixture which included a surfactant.
(§3) At the same time, these species were planted in pots containing Redi-Earth® planting medium (Scotts Company, 14111 Scottslawn Road, Marysville, Ohio 43041) comprising spaghnum peat moss, vermiculite, wetting agent and starter nutrients and treated with postemergence applications of the test chemicals formulated in the same manner. Plants ranged in height from 2 to 18 cm (1- to 4-leaf stage). Treated plants and controls were maintained in a controlled growth environment for 7 to 21 days after which time all species were compared to controls and visually evaluated. Plant response ratings, summarized in Table D, are based on a scale of 0 to 100 where 0 is no effect and 100 is complete control. A dash (-) response means no test result.

canarygrass = experiment: Test D postemergence; format: in vivo, Phalaris minor; details: Phalaris minor, post-emergence
Outline: as §1

green foxtail [2] = experiment: Test D postemergence; format: in vivo, Setaria viridis; details: Setaria viridis, post-emergence
From the text: as §2, §3

kochia = experiment: Test D postemergence; format: in vivo, Kochia scoparia; details: Bassia scoparia, post-emergence
From the text: as §2, §3

lambsquarters = experiment: Test D postemergence; format: in vivo, Chenopodium album; details: Chenopodium album, post-emergence
Outline: as §1

chamomile = experiment: Test D postemergence; format: in vivo, Matricaria inodora; details: Tripleurospermum inodorum, post-emergence
From the text: as §2, §3

spring barley = experiment: Test D postemergence; format: in vivo, Hordeum vulgare; details: Hordeum vulgare, post-emergence, Postemergence, scale 0 to 100 (0 no effect, 100 complete control), read-out: Plant response rating, Barley, Spring
Outline: as §1

winter barley = experiment: Test D postemergence; format: in vivo, Hordeum vulgare; details: Hordeum vulgare, post-emergence, Postemergence, scale 0 to 100 (0 no effect, 100 complete control), read-out: Plant response rating, Barley, Winter
Outline: as §1

wild buckwheat = experiment: Test D postemergence; format: in vivo, Polygonum convolvulus; details: Fallopia convolvulus, post-emergence, Postemergence, scale 0 to 100 (0 no effect, 100 complete control), read-out: Plant response rating, Buckwheat, Wild
Outline: as §1

FC(F)(F)c1cnn(-c2ccccc2Oc2ncc(Br)cn2)c1 [Compound 18, 5-bromo-2-[2-[4-(trifluoromethyl)-1H-pyrazol-1-yl]phenoxy]pyrimidine]
pest or weed control at 16 g/ha (green foxtail [1]; 16 g ai/ha, scale 0 (no effect) to 100 (complete control), read-out: Plant response rating, Foxtail, Green): 5% | pest or weed control at 31 g/ha (green foxtail [1]; 31 g ai/ha, scale 0-100, read-out: Plant response rating, Foxtail, Green): 15% | pest or weed control at 62 g/ha (green foxtail [1]; 62 g ai/ha, scale 0-100, read-out: Plant response rating, Foxtail, Green): 50% | pest or weed control at 125 g/ha (green foxtail [1]; 125 g ai/ha, scale 0-100, read-out: Plant response rating, Foxtail, Green): 95% | pest or weed control at 250 g/ha (green foxtail [1]; 250 g ai/ha, scale 0-100, read-out: Plant response rating, Foxtail, Green): 100% | plant injury at 16 g/ha (oilseed rape; 16 g ai/ha, scale 0 (no effect) to 100 (complete control), read-out: Plant response rating, Oilseed Rape): 40% | plant injury at 31 g/ha (oilseed rape; 31 g ai/ha, scale 0-100, read-out: Plant response rating, Oilseed Rape): 30% | plant injury at 62 g/ha (oilseed rape; 62 g ai/ha, scale 0-100, read-out: Plant response rating, Oilseed Rape): 100% | plant injury at 125 g/ha (oilseed rape; 125 g ai/ha, scale 0-100, read-out: Plant response rating, Oilseed Rape): 100% | plant injury at 250 g/ha (oilseed rape; 250 g ai/ha, scale 0-100, read-out: Plant response rating, Oilseed Rape): 100% | pest or weed control at 16 g/ha (canarygrass; 16 g ai/ha, scale 0-100, read-out: Plant response rating, Canarygrass): 10% | pest or weed control at 31 g/ha (canarygrass; 31 g ai/ha, scale 0 to 100 (0 no effect, 100 complete control), read-out: Plant response rating, Canarygrass): 15% | pest or weed control at 62 g/ha (canarygrass; 62 g ai/ha, scale 0 to 100 (0 no effect, 100 complete control), read-out: Plant response rating, Canarygrass): 15% | pest or weed control at 125 g/ha (canarygrass; 125 g ai/ha, scale 0 to 100 (0 no effect, 100 complete control), read-out: Plant response rating, Canarygrass): 20% | pest or weed control at 250 g/ha (canarygrass; 250 g ai/ha, scale 0 to 100 (0 no effect, 100 complete control), read-out: Plant response rating, Canarygrass): 35% | pest or weed control at 16 g/ha (green foxtail [2]; 16 g ai/ha, scale 0-100, read-out: Plant response rating, Foxtail, Green): 10% | pest or weed control at 31 g/ha (green foxtail [2]; 31 g ai/ha, scale 0 to 100 (0 no effect, 100 complete control), read-out: Plant response rating, Foxtail, Green): 10% | pest or weed control at 62 g/ha (green foxtail [2]; 62 g ai/ha, scale 0 to 100 (0 no effect, 100 complete control), read-out: Plant response rating, Foxtail, Green): 15% | pest or weed control at 125 g/ha (green foxtail [2]; 125 g ai/ha, scale 0 to 100 (0 no effect, 100 complete control), read-out: Plant response rating, Foxtail, Green): 20% | pest or weed control at 250 g/ha (green foxtail [2]; 250 g ai/ha, scale 0 to 100 (0 no effect, 100 complete control), read-out: Plant response rating, Foxtail, Green): 25% | pest or weed control at 16 g/ha (kochia; 16 g ai/ha, scale 0-100, read-out: Plant response rating, Kochia): 35% | pest or weed control at 31 g/ha (kochia; 31 g ai/ha, scale 0 to 100 (0 no effect, 100 complete control), read-out: Plant response rating, Kochia): 85% | pest or weed control at 62 g/ha (kochia; 62 g ai/ha, scale 0 to 100 (0 no effect, 100 complete control), read-out: Plant response rating, Kochia): 90% | pest or weed control at 125 g/ha (kochia; 125 g ai/ha, scale 0 to 100 (0 no effect, 100 complete control), read-out: Plant response rating, Kochia): 100% | pest or weed control at 250 g/ha (kochia; 250 g ai/ha, scale 0 to 100 (0 no effect, 100 complete control), read-out: Plant response rating, Kochia): 100% | pest or weed control at 16 g/ha (lambsquarters; 16 g ai/ha, scale 0-100, read-out: Plant response rating, Lambsquarters): 15% | pest or weed control at 31 g/ha (lambsquarters; 31 g ai/ha, scale 0 to 100 (0 no effect, 100 complete control), read-out: Plant response rating, Lambsquarters): 50% | pest or weed control at 62 g/ha (lambsquarters; 62 g ai/ha, scale 0 to 100 (0 no effect, 100 complete control), read-out: Plant response rating, Lambsquarters): 90% | pest or weed control at 125 g/ha (lambsquarters; 125 g ai/ha, scale 0 to 100 (0 no effect, 100 complete control), read-out: Plant response rating, Lambsquarters): 95% | pest or weed control at 250 g/ha (lambsquarters; 250 g ai/ha, scale 0 to 100 (0 no effect, 100 complete control), read-out: Plant response rating, Lambsquarters): 95% | pest or weed control at 16 g/ha (chamomile; 16 g ai/ha, scale 0-100, read-out: Plant response rating, Chamomile): 5% | pest or weed control at 31 g/ha (chamomile; 31 g ai/ha, scale 0 to 100 (0 no effect, 100 complete control), read-out: Plant response rating, Chamomile): 10% | pest or weed control at 62 g/ha (chamomile; 62 g ai/ha, scale 0 to 100 (0 no effect, 100 complete control), read-out: Plant response rating, Chamomile): 5% | pest or weed control at 125 g/ha (chamomile; 125 g ai/ha, scale 0 to 100 (0 no effect, 100 complete control), read-out: Plant response rating, Chamomile): 10% | pest or weed control at 250 g/ha (chamomile; 250 g ai/ha, scale 0 to 100 (0 no effect, 100 complete control), read-out: Plant response rating, Chamomile): 10% | plant injury at 16 g/ha (spring barley; 16 g ai/ha): 5% | plant injury at 31 g/ha (spring barley; 31 g ai/ha): 5% | plant injury at 62 g/ha (spring barley; 62 g ai/ha): 10% | plant injury at 125 g/ha (spring barley; 125 g ai/ha): 15% | plant injury at 250 g/ha (spring barley; 250 g ai/ha): 25% | plant injury at 16 g/ha (winter barley; 16 g ai/ha): 10% | plant injury at 31 g/ha (winter barley; 31 g ai/ha): 10% | plant injury at 62 g/ha (winter barley; 62 g ai/ha): 10% | plant injury at 125 g/ha (winter barley; 125 g ai/ha): 15% | plant injury at 250 g/ha (winter barley; 250 g ai/ha): 20% | pest or weed control at 16 g/ha (wild buckwheat; 16 g ai/ha): 60% | pest or weed control at 31 g/ha (wild buckwheat; 31 g ai/ha): 55% | pest or weed control at 62 g/ha (wild buckwheat; 62 g ai/ha): 70% | pest or weed control at 125 g/ha (wild buckwheat; 125 g ai/ha): 100% | pest or weed control at 250 g/ha (wild buckwheat; 250 g ai/ha): 95%
